# Test results from patent US7432342B2, “Kinase anchor protein muteins, peptides thereof and related documents” (Sequenom, Inc., priority 2002, dated 2008).
# Ends that are not written are not given here. Peptide text beside a SMILES is read from it. * marks the point of attachment. X1 = CN(C)c1ccc2c(c1)Oc1cc(N(C)C)ccc1C21OC(=O)c2cc(N3C(=O)CC(*)C3=O)ccc21
# Columns and labels:
# full-length RIα = biological target: T1, full-length RIα (Bos taurus, UniProt P00514); experiment: Fluorescence anisotropy binding assay (Example 9); design: species or system bovine; settings: for Kd: Table 8, truncated and substituted peptides, read-out: KD (nM) Rlα; for binding to RIα, in words: compared with the unsubstituted peptide
# T1 construct: Full-length bovine RIα was expressed in E. coli 222; made in house; host or cells: E. coli 222
# Description: (§1) Each peptide was fluorescently labeled using a 25 mM solution of tetramethylrhodamine-5-maleimide (catalog number T-6027; Molecular Probes, Eugene, Oreg.) dissolved in DMSO. The peptides were labeled by incubating with a three-fold molar excess of the label for 16 hr at 4° C. in 20 mM Tris, pH 7.0 and 1 mM tris-(2-carboxyethyl) phosphine, hydrochloride (TCEP) (non-thiol reducing agent, Molecular Probes). The sample was quenched with 1 mM, β-mercaptoethanol to bind to any unreacted maleimide and diluted with 0.1% TFA for purification by HPLC. The labeled peptides were resolved using a C18 column with a water/acetonitrile gradient containing 0.1% TFA. The concentration of each peptide was determined by absorbance at 541 nm after diluting into 100% methanol and using an extinction coefficient of 91,000 M^−1 cm^−1 for absorbance of the rhodamine label at 541 nm (Molecular Probes Catalog). The peptides were stored at 4° C. in 50% acetonitrile.
# (§2) Full-length murine RIIα was expressed in E. coli BL21 (DE3). Full-length bovine RIα was expressed in E. coli 222. The proteins were purified as previously described using a cAMP affinity resin (Hamuro et al. (2002) J. Mol. Biol., 321:703). The protein concentrations were determined using the following extinction coefficients at 280 nm, which were calculated using a standard concentration of protein calibrated using quantitative amino acid analysis: RIα 52,603 M^−1 cm^−1 and RIIα 62,456 M^−1 cm^−1. The proteins were stored at 4° C. in 50 mM MES pH 5.8, 50 mM NaCl, 2 mM EDTA, 2 mM EGTA, 2 mM DTT.
# (§3) Binding of each fluorescently labeled peptide to the regulatory subunits was monitored using fluorescence anisotropy. RIα and RIIα were serially diluted beginning at 1 μM and 0.1 μM, respectively, into 10 mM HEPES pH 7.4, 0.15 M NaCl, 3 mM EDTA, 0.005% Surfactant P20 (Biacore) containing either 10 nM or 1 nM of fluorescently labeled peptide for RIα and RIIα, respectively. The samples were equilibrated for at least 1 hour at room temperature and fluorescence anisotropy monitored using a Fluoromax-2 (Jobin Yvon Horiba, SPEX Division, Edison, N.J.) equipped with Glan-Thompson polarizers. The rhodamine-labeled peptide was excited at 541 nm (5-10 nm bandpass) and emission monitored at 575 nm (5-10 nm bandpass). The anisotropy was calculated directly with the Fluoromax software using the following equation: r=(IVV−G*IVH)/(IVV+2G*IVH) (1) where r is the steady state anisotropy, IVV is the fluorescence intensity with the excitation and emission polarizers oriented in the vertical position (0° from normal), IVH is the fluorescence intensity with the excitation polarizer in the vertical position and the emission polarizer oriented in the horizontal position (90°) relative to the excitation polarizer, G is the monochromator grating factor which is equal to (IHV/IHH), with the first subscript indicating the position of the excitation polarizer and the second subscript indicating position of the emission polarizer. Three separate binding experiments were averaged and fit to a 1:1 binding model using the non-linear regression application in GraphPad Prism version 3.00 (GraphPad Software, San Diego, Calif.).
# full-length RIIα = biological target: T2, full-length RIIα (Mus musculus, UniProt P12367); experiment: Fluorescence anisotropy binding assay (Example 9); design: species or system murine; settings: for Kd: Table 8, truncated and substituted peptides, read-out: KD (nM) Rllα; for binding to RIIα, in words: compared with the unsubstituted peptide
# T2 construct: Full-length murine RIIα was expressed in E. coli BL21 (DE3); made in house; host or cells: E. coli BL21 (DE3)
# Description: as §1, §2, §3
# T1 sequence (P00514 whole entry, the tested form may be a part): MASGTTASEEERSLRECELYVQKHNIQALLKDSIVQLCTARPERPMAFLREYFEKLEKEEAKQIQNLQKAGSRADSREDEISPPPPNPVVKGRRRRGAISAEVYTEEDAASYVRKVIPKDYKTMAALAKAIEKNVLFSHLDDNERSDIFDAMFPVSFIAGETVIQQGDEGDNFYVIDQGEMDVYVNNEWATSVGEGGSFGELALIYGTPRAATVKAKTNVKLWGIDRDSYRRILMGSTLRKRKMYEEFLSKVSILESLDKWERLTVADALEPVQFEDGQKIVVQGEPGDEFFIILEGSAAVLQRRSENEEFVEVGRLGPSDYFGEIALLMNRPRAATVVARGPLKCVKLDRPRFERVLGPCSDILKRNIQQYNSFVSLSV
# T2 sequence (P12367 whole entry, the tested form may be a part): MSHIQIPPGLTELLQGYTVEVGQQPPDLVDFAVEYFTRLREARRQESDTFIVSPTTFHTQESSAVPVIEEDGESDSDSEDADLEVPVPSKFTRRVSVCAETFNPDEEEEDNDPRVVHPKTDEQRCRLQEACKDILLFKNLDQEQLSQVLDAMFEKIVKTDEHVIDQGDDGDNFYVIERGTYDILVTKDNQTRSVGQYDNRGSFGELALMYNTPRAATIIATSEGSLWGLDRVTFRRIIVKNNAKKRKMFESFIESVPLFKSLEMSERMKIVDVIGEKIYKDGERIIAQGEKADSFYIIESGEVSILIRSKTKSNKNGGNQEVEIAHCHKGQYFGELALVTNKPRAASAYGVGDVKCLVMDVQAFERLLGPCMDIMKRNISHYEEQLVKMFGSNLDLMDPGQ
Kd (full-length RIα),Kd (full-length RIIα),"binding to RIα, in words (full-length RIα)","binding to RIIα, in words (full-length RIIα)",Compound
19 nM,150 nM,,,CC[C@H](C)[C@H](NC(=O)[C@H](CCCCN)NC(=O)[C@H](Cc1c[nH]c2ccccc12)NC(=O)[C@H](C)NC(=O)[C@H](CC(C)C)NC(=O)[C@H](CCC(=O)O)NC(=O)[C@H](CCC(=O)O)NC(=O)[C@@H](N)Cc1ccccc1)C(=O)N[C@@H](C)C(=O)N[C@@H](CCCCN)C(=O)N[C@@H](CCSC)C(=O)N[C@H](C(=O)N[C@@H](Cc1c[nH]c2ccccc12)C(=O)N[C@@H](CO)C(=O)N[C@@H](CC(=O)O)C(=O)N[C@H](C(=O)N[C@@H](CCSC)C(=O)N[C@@H](CCC(N)=O)C(=O)N[C@@H](CCC(N)=O)C(=O)N[C@@H](CSC1CC(=O)N(c2ccc3c(c2)C(=O)OC32c3ccc(N(C)C)cc3Oc3cc(N(C)C)ccc32)C1=O)C(N)=O)C(C)C)[C@@H](C)CC (stereo partly shown) [PV-37] (H-FEELAWKIAKMIWSDVMQQC(X1)-NH2)
39 nM,89 nM,,,CC[C@H](C)[C@H](NC(=O)[C@H](CCCCN)NC(=O)[C@H](Cc1c[nH]c2ccccc12)NC(=O)[C@H](C)NC(=O)[C@H](Cc1ccccc1)NC(=O)[C@H](CCC(=O)O)NC(=O)[C@H](CCC(=O)O)NC(=O)[C@@H](N)CCC(N)=O)C(=O)N[C@@H](C)C(=O)N[C@@H](CCCCN)C(=O)N[C@@H](CCSC)C(=O)N[C@H](C(=O)N[C@H](C(=O)N[C@@H](CO)C(=O)N[C@@H](CC(=O)O)C(=O)N[C@H](C(=O)N[C@@H](Cc1ccccc1)C(=O)N[C@@H](CCC(N)=O)C(=O)N[C@@H](CCC(N)=O)C(=O)N[C@@H](CSC1CC(=O)N(c2ccc3c(c2)C(=O)OC32c3ccc(N(C)C)cc3Oc3cc(N(C)C)ccc32)C1=O)C(N)=O)C(C)C)C(C)C)[C@@H](C)CC (stereo partly shown) [PV-47] (H-QEEFAWKIAKMIVSDVFQQC(X1)-NH2)
12 nM,124 nM,,,CC[C@H](C)[C@H](NC(=O)[C@H](CCCCN)NC(=O)[C@H](Cc1c[nH]c2ccccc12)NC(=O)[C@H](C)NC(=O)[C@H](Cc1ccccc1)NC(=O)[C@H](CCC(=O)O)NC(=O)[C@H](CCC(=O)O)NC(=O)[C@@H](N)CCC(N)=O)C(=O)N[C@@H](C)C(=O)N[C@@H](CCCCN)C(=O)N[C@@H](CCSC)C(=O)N[C@H](C(=O)N[C@H](C(=O)N[C@@H](CO)C(=O)N[C@@H](CC(=O)O)C(=O)N[C@H](C(=O)N[C@@H](Cc1ccccc1)C(=O)N[C@@H](CCC(N)=O)C(=O)N[C@@H](CCC(N)=O)C(=O)N[C@@H](CSC1CC(=O)N(c2ccc3c(c2)C(=O)OC32c3ccc(N(C)C)cc3Oc3cc(N(C)C)ccc32)C1=O)C(N)=O)C(C)C)[C@@H](C)CC)[C@@H](C)CC (stereo partly shown) [PV-48] (H-QEEFAWKIAKMIISDVFQQC(X1)-NH2)
1.1 nM,2.5 nM,,,CC[C@H](C)[C@H](NC(=O)[C@H](CCCCN)NC(=O)[C@H](Cc1c[nH]c2ccccc12)NC(=O)[C@H](C)NC(=O)[C@H](CC(C)C)NC(=O)[C@H](CCC(=O)O)NC(=O)[C@H](CCC(=O)O)NC(=O)[C@@H](N)Cc1ccccc1)C(=O)N[C@@H](C)C(=O)N[C@@H](CCCCN)C(=O)N[C@@H](CCSC)C(=O)N[C@H](C(=O)N[C@H](C(=O)N[C@@H](CO)C(=O)N[C@@H](CC(=O)O)C(=O)N[C@H](C(=O)N[C@@H](Cc1ccccc1)C(=O)N[C@@H](CCC(N)=O)C(=O)N[C@@H](CCC(N)=O)C(=O)N[C@@H](CSC1CC(=O)N(c2ccc3c(c2)C(=O)OC32c3ccc(N(C)C)cc3Oc3cc(N(C)C)ccc32)C1=O)C(N)=O)C(C)C)[C@@H](C)CC)[C@@H](C)CC (stereo partly shown) [PV-49] (H-FEELAWKIAKMIISDVFQQC(X1)-NH2)
120 nM,83 nM,,,CC[C@H](C)[C@H](NC(=O)[C@H](CCCCN)NC(=O)[C@H](Cc1c[nH]c2ccccc12)NC(=O)[C@H](C)NC(=O)[C@H](CC(C)C)NC(=O)[C@H](CCC(=O)O)NC(=O)[C@H](CCC(=O)O)NC(=O)[C@H](CCC(N)=O)NC(=O)[C@H](C)NC(=O)[C@H](CCC(=O)O)NC(=O)[C@H](CC(=O)O)NC(=O)[C@@H](NC(=O)[C@H](CC(N)=O)NC(=O)CNC(=O)[C@H](CCC(N)=O)NC(=O)[C@@H](N)C(C)C)[C@@H](C)O)C(=O)N[C@@H](C)C(=O)N[C@@H](CCCCN)C(=O)N[C@@H](CCSC)C(=O)N[C@H](C(=O)N[C@@H](Cc1c[nH]c2ccccc12)C(=O)N[C@@H](CO)C(=O)N[C@@H](CC(=O)O)C(=O)N[C@H](C(=O)N[C@@H](CCSC)C(=O)N[C@@H](CCC(N)=O)C(=O)N[C@@H](CCC(N)=O)C(=O)N[C@@H](CSC1CC(=O)N(c2ccc3c(c2)C(=O)OC32c3ccc(N(C)C)cc3Oc3cc(N(C)C)ccc32)C1=O)C(N)=O)C(C)C)[C@@H](C)CC (stereo partly shown) [SEQ ID NO:111] (H-VQGNTDEAQEELAWKIAKMIWSDVMQQC(X1)-NH2)
773 nM,107 nM,,,"CC[C@H](C)[C@H](NC(=O)[C@H](CCCCN)NC(=O)[C@H](Cc1c[nH]c2ccccc12)NC(=O)[C@H](C)NC(=O)[C@H](CC(C)C)NC(=O)[C@H](CC(=O)O)NC(C)=O)C(=O)N[C@@H](C)C(=O)N[C@@H](CCCCN)C(=O)N[C@@H](CCSC)C(=O)N[C@H](C(=O)N[C@H](C(=O)N[C@@H](CO)C(=O)N[C@@H](CC(=O)O)C(=O)N[C@H](C(=O)N[C@@H](CCSC)C(=O)N[C@@H](CCC(N)=O)C(=O)N[C@@H](CCC(N)=O)C(=O)N[C@@H](CSC1CC(=O)N(c2ccc3c(c2)C(=O)OC32c3ccc(N(C)C)cc3Oc3cc(N(C)C)ccc32)C1=O)C(N)=O)C(C)C)C(C)C)[C@@H](C)CC (stereo partly shown) [SEQ ID NO:112, Ac-DLAWKIAKMIVSDVMQQC] (Ac-DLAWKIAKMIVSDVMQQC(X1)-NH2)"
,,reduced binding,reduced binding,Ac-DLAWKIAKMIVSDVMQQ (listed as Homo sapiens) [SEQ ID NO:102]
,,binds tightly,weakly,VQGNTDEAQEELAWKIAKMIWSD[I/V]MQQ [SEQ ID NO:54]
